Data from patent publication US20230405028A1 (priority 2020, published 2023).
Read-outs that look alike come from different tables or passages of the source.

Legend:
[1] = tested on: BDNF; test: BDNF in A-172 cells; format: cell-based; details: escalating doses
From the text: (§1) This experiment was designed to explore the synergistic interaction of 5HT2A agonist and a TRP agonists on receptors in the brain that are associated with depression and/or inflammation. […] The development of an inflammatory microenvironment is considered important to the initiation and progression of glioblastoma; however, therapeutic approaches to target inflammation have previously been limited. The abnormal function of IL-6 and IL-8 has been predicted to lead to glioblastoma.
(§2) Thus, unlike the experiments on HSIEC cells described above, no inflammatory treatment was applied to the A-172 cells. The A-172 cells were grown to […] confluence on T-25 flasks to allow a 96-hour duration of exposure of the cells to the compounds of interest

[2] = tested on: COX-2; test: COX-2 in A-172 cells; format: cell-based; details: 5 μM psilocybin + 25 μM eugenol vs 5 μM psilocybin alone, eugenol alone 25 μM
From the text: as §1, §2

[3] = tested on: Human primary small intestinal epithelial cells (HSIEC)
[4] = tested on: A-172 glioblastoma cells; test: MTT cell viability assay in A-172 cells

Structure (SMILES): C=CCc1ccc(O)c(OC)c1 [eugenol]
- dose resulting in the greatest increase in BDNF [1]: 100 µM
- effect on COX-2 [2]: increase
- effect on cell growth / cellular metabolic activity (MTT, words) [3]: slight inhibitory effect on cell growth
- Cellular Metabolic Activity ([3]; 10 μM, 24 h): 0.064
- Cellular Metabolic Activity ([3]; 10 μM, 48 h): 0.168
- Cellular Metabolic Activity ([3]; 10 μM, 72 h): 0.346
- Cellular Metabolic Activity ([3]; 10 μM, 96 h): 0.632
- Cellular Metabolic Activity ([3]; 10 μM, time 0): 0.047
- Cellular Metabolic Activity ([3]; 50 μM, 24 h): 0.079
- Cellular Metabolic Activity ([3]; 50 μM, 48 h): 0.145
- Cellular Metabolic Activity ([3]; 50 μM, 72 h): 0.337
- Cellular Metabolic Activity ([3]; 50 μM, 96 h): 0.647
- Cellular Metabolic Activity ([3]; 50 μM, time 0): 0.038
- Cellular Metabolic Activity ([3]; 100 μM, 24 h): 0.075
- Cellular Metabolic Activity ([3]; 100 μM, 48 h): 0.136
- Cellular Metabolic Activity ([3]; 100 μM, 72 h): 0.346
- Cellular Metabolic Activity ([3]; 100 μM, 96 h): 0.662
- Cellular Metabolic Activity ([3]; 100 μM, time 0): 0.038
- Cellular Metabolic Activity ([3]; 200 μM, 24 h): 0.064
- Cellular Metabolic Activity ([3]; 200 μM, 48 h): 0.111
- Cellular Metabolic Activity ([3]; 200 μM, 72 h): 0.296
- Cellular Metabolic Activity ([3]; 200 μM, 96 h): 0.652
- Cellular Metabolic Activity ([3]; 200 μM, time 0): 0.041
- Cellular Metabolic Activity ([3]; 400 μM, 24 h): 0.059
- Cellular Metabolic Activity ([3]; 400 μM, 48 h): 0.128
- Cellular Metabolic Activity ([3]; 400 μM, 72 h): 0.242
- Cellular Metabolic Activity ([3]; 400 μM, 96 h): 0.549
- Cellular Metabolic Activity ([3]; 400 μM, time 0): 0.042
- Cellular Metabolic Activity ([3]; 800 μM, 24 h): 0.053
- Cellular Metabolic Activity ([3]; 800 μM, 48 h): 0.091
- Cellular Metabolic Activity ([3]; 800 μM, 96 h): 0.268
- Cellular Metabolic Activity ([3]; 800 μM, time 0): 0.042
- Cellular Metabolic Activity ([4]; 10 μM, 24 h): 0.137
- Cellular Metabolic Activity ([4]; 10 μM, 48 h): 0.234
- Cellular Metabolic Activity ([4]; 10 μM, 72 h): 0.329
- Cellular Metabolic Activity ([4]; 10 μM, 96 h): 0.533
- Cellular Metabolic Activity ([4]; 10 μM, time 0): 0.084
- Cellular Metabolic Activity ([4]; 25 μM, 24 h): 0.153
- Cellular Metabolic Activity ([4]; 25 μM, 48 h): 0.266
- Cellular Metabolic Activity ([4]; 25 μM, 72 h): 0.318
- Cellular Metabolic Activity ([4]; 25 μM, 96 h): 0.557
- Cellular Metabolic Activity ([4]; 25 μM, time 0): 0.083
- Cellular Metabolic Activity ([4]; 50 μM, 24 h): 0.146
- Cellular Metabolic Activity ([4]; 50 μM, 48 h): 0.229
- Cellular Metabolic Activity ([4]; 50 μM, 72 h): 0.327
- Cellular Metabolic Activity ([4]; 50 μM, 96 h): 0.542
- Cellular Metabolic Activity ([4]; 50 μM, time 0): 0.086
- Cellular Metabolic Activity ([4]; 100 μM, 24 h): 0.170
- Cellular Metabolic Activity ([4]; 100 μM, 48 h): 0.230
- Cellular Metabolic Activity ([4]; 100 μM, 72 h): 0.322
- Cellular Metabolic Activity ([4]; 100 μM, 96 h): 0.516
- Cellular Metabolic Activity ([4]; 100 μM, time 0): 0.082
- Cellular Metabolic Activity ([4]; 200 μM, 24 h): 0.170
- Cellular Metabolic Activity ([4]; 200 μM, 48 h): 0.224
- Cellular Metabolic Activity ([4]; 200 μM, 72 h): 0.313
- Cellular Metabolic Activity ([4]; 200 μM, 96 h): 0.431
- Cellular Metabolic Activity ([4]; 200 μM, time 0): 0.089
- Cellular Metabolic Activity ([4]; 400 μM, 24 h): 0.173
- Cellular Metabolic Activity ([4]; 400 μM, 48 h): 0.208
- Cellular Metabolic Activity ([4]; 400 μM, 72 h): 0.272
- Cellular Metabolic Activity ([4]; 400 μM, 96 h): 0.422
- Cellular Metabolic Activity ([4]; 400 μM, time 0): 0.088
- effect on cell growth (MTT, words) ([4]; A-172, psilocybin 80 μM): slight inhibitory effect
